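Dose response: 5 concentrations. Exposure: 48 h. Format: 96-well plates. Endpoint: linear interpolation; highest concentration if not reached. GI50 = concentration required for 50% inhibition of growth. TGI: concentration producing complete growth inhibition.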
Legend:
Experiment in all cases: NCI anticancer screen, dose series, 48 h
A498 renal = test system: A498 renal
OVCAR-5 ovarian = test system: OVCAR-5 ovarian
OVCAR-8 ovarian = test system: OVCAR-8 ovarian
MCF7 breast = test system: MCF7 breast
HCT-15 colon = test system: HCT-15 colon
COLO 205 colon = test system: COLO 205 colon
A549 NSCLC = test system: A549 NSCLC
HCT-116 colon = test system: HCT-116 colon
SF-268 CNS = test system: SF-268 CNS
CAKI-1 renal = test system: CAKI-1 renal

| SMILES | GI50 (A498 renal) [µM] | TGI (A498 renal) [µM] | GI50 (OVCAR-5 ovarian) [µM] | TGI (OVCAR-5 ovarian) [µM] | GI50 (OVCAR-8 ovarian) [µM] | TGI (OVCAR-8 ovarian) [µM] | GI50 (MCF7 breast) [µM] | TGI (MCF7 breast) [µM] | GI50 (HCT-15 colon) [µM] | TGI (HCT-15 colon) [µM] | GI50 (COLO 205 colon) [µM] | TGI (COLO 205 colon) [µM] | GI50 (A549 NSCLC) [µM] | TGI (A549 NSCLC) [µM] | GI50 (HCT-116 colon) [µM] | TGI (HCT-116 colon) [µM] | GI50 (SF-268 CNS) [µM] | TGI (SF-268 CNS) [µM] | GI50 (CAKI-1 renal) [µM] | TGI (CAKI-1 renal) [µM] |
| --- | --- | --- | --- | --- | --- | --- | --- | --- | --- | --- | --- | --- | --- | --- | --- | --- | --- | --- | --- | --- |
| Nc1ccccc1NC(=O)c1ccc(CCCC(=O)Nc2ccc(C3CC3N)cc2)cc1 (centres undefined) | 0.747 | 2.74 | 0.925 | 37.6 | 1.32 | > 100 | 1.71 | > 100 | 18.8 | > 100 | 0.765 | 2.89 | 4.38 | > 100 | 0.375 | 16 | 1.83 | 23 | 2.46 | 14.4 |
| Cc1nc([C@H]2CC[C@H]3[C@@H]4CCC5=CC(=O)CC[C@]5(C)[C@H]4CC[C@]23C)cs1 | > 53.3 | > 100 | > 100 | > 100 | 4.62 | > 100 | 2.78 | > 100 | 4.97 | > 100 | 5.31 | > 100 | 5.25 | > 100 | 3.47 | > 100 | > 27.2 | > 100 | 2.3 | > 100 |
| COc1ccc(-c2nc(C(=O)c3ccccc3)n(CC(=O)c3ccccc3)c2-c2ccc(OC)cc2)cc1 | > 100 | > 100 | > 100 | > 100 | > 100 | > 100 | > 100 | > 100 | > 100 | > 100 | > 100 | > 100 | > 100 | > 100 | > 100 | > 100 | > 100 | > 100 | > 100 | > 100 |
| Fc1ccc(-c2ncn(C3CCNCC3)c2-c2ccnc(Oc3ccc(F)c(F)c3)n2)cc1 | 10.8 | > 25 | 7.78 | > 25 | 4.96 | 10.9 | 4.28 | 8.27 | 5.64 | 15.6 | 4.55 | 8.47 | 9.39 | > 19.4 | 4.09 | 7.56 | 12 | > 25 | 10.6 | > 20.6 |
| OC(COc1ccc(F)cc1)Cn1cnc2c(Cl)ncnc21 (centres undefined) | > 100 | > 100 | > 100 | > 100 | 78.6 | > 100 | > 100 | > 100 | 32.4 | > 100 | > 100 | > 100 | > 100 | > 100 | > 100 | > 100 | 97.4 | > 100 | 19.9 | 37.6 |
| Clc1ccc(C2=Nn3c(nnc3-c3cc(Cl)cc(Cl)c3Cl)SC2)cc1 | 31.1 | > 100 | 36.7 | > 100 | 38.3 | > 100 | 11.8 | 92.7 | 22.3 | > 100 | 52.8 | > 100 | 56.5 | > 100 | 22.1 | > 100 | 16.5 | > 100 | 14.6 | 31.3 |
| COC(=O)NC1(NC(=O)OC)NC(=O)c2cc(OC)c(OC)c(OC)c2N1 | – | > 100 | – | > 100 | – | > 100 | – | > 100 | – | > 100 | – | > 100 | – | > 100 | – | > 100 | – | > 100 | – | > 100 |
| COC(=O)Nc1nc2ccc(C(=O)c3ccc(N(C)C4COC4)cc3)cc2[nH]1 | 0.413 | > 100 | 0.746 | > 100 | 0.482 | > 100 | 0.346 | > 100 | 0.303 | > 100 | 0.285 | 1.03 | 0.655 | > 100 | 0.36 | > 100 | 0.745 | > 100 | 0.435 | > 100 |
| CS(=O)(=O)CCNCc1ccc(-c2ccc3ncnc(Nc4ccc(OCc5cccc(F)c5)c(C(F)(F)F)c4)c3c2)o1 | 3.54 | 9.04 | 5.29 | 15 | 4.76 | 11.2 | 3.84 | 7.74 | 4.02 | 9.12 | 4.37 | 7.99 | 4.23 | 9.27 | 3.94 | 8.16 | 3.74 | 7.78 | 4.59 | 13.7 |
| CN1C(=O)[C@@H](NC(=O)[C@H](CCC(F)(F)F)[C@H](CCC(F)(F)F)C(N)=O)N=C(c2ccccc2)c2ccccc21 | 47.7 | > 100 | > 100 | > 100 | > 100 | > 100 | 33.4 | > 100 | 89.5 | > 100 | 87.5 | > 100 | 66.7 | > 100 | 56.7 | > 100 | > 100 | > 100 | > 100 | > 100 |
| CCN1C2=NCCN2S(=O)(=O)c2ccccc21 | – | > 100 | – | > 100 | – | > 100 | – | > 100 | – | > 100 | – | > 100 | – | > 100 | – | > 100 | – | > 100 | – | > 100 |
| COC(=O)c1c(O)c([N+](=O)[O-])cc2c1c1c(n2Cc2ccccc2)C(=O)c2ccccc2C1=O | 18.5 | 49 | 28.6 | 66.7 | 14.1 | 53.1 | 5.86 | 46.1 | 34.6 | > 100 | 2.18 | 6.82 | 20.4 | > 100 | 4.06 | 17.5 | 8.48 | 76.9 | 38.2 | > 100 |
| O=C(O)c1ccc(S(=O)(=O)Nc2ccc3oc4c(c3c2)C(=O)CCC4)cc1 | > 100 | > 100 | > 100 | > 100 | > 100 | > 100 | > 100 | > 100 | > 100 | > 100 | > 100 | > 100 | > 100 | > 100 | > 100 | > 100 | > 100 | > 100 | > 100 | > 100 |
| N#CSc1c[nH]c2ccc(/C=C/C(=O)/C=C(/C=C/c3ccc4[nH]cc(SC#N)c4c3)OB(F)F)cc12 | 3.24 | 12.3 | 2.24 | 8.68 | 0.577 | > 100 | 0.458 | 3.5 | 0.249 | 1.09 | 0.652 | 3.52 | 3.31 | 17.6 | 0.0887 | 0.375 | 1.12 | 2.8 | 0.531 | 4.05 |
| CN(C)C/C=C/C(=O)Nc1cc2c(Nc3ccc(F)c(Cl)c3F)ncnc2cc1OCCOC(F)F | 0.282 | 1.91 | 0.136 | 13.7 | 0.972 | 9.9 | 1.24 | 10.1 | 0.491 | 2.96 | 1.03 | 3.55 | 0.596 | 10.2 | 0.625 | 2.98 | 0.71 | 3.89 | < 0.01 | 1.13 |
| Cc1cc(O)c(C2=NN(c3ccc(S(N)(=O)=O)cc3)C(c3ccc(N(C)C)cc3)C2)c(C)c1Cl (centres undefined) | 26.7 | 43.9 | 19.4 | 38.1 | 27.3 | > 100 | 6.55 | 24.2 | 14.2 | 32 | 12.3 | 25.4 | 14.7 | 43.5 | 7.6 | 21.1 | 18.7 | 37.2 | 23.3 | > 100 |
| O=c1c(O)cccc2cc(O)c(O)c(O)c12 | 4.16 | > 100 | 41.8 | > 100 | 27.3 | > 100 | 6.46 | 23.9 | 39.1 | > 100 | > 100 | > 100 | > 100 | > 100 | 7.67 | > 100 | 5.34 | > 100 | 14.3 | > 100 |
| COC1=CC23CCCN2CCc2cc4c(cc2C3C1O)OCO4 (centres undefined) | – | > 100 | – | > 100 | – | > 100 | – | > 100 | – | > 100 | – | 64.2 | – | > 100 | – | > 100 | – | > 100 | – | 92 |
| CC(=O)N1c2ccccc2NC2=C(C(=O)N(Cc3ccccc3)C2(C)C)C1c1ccco1 (centres undefined) | 0.727 | > 7.06 | 0.44 | > 25 | 1.24 | > 25 | 0.368 | > 25 | 1.2 | > 25 | 0.742 | > 25 | 1.03 | > 25 | 0.692 | > 25 | 1.28 | > 25 | 3.41 | > 25 |
| Cc1nc(CN2CCCCC2)c(O)c(=O)[nH]1 | – | > 100 | – | > 100 | – | > 100 | – | > 100 | – | > 100 | – | > 100 | – | > 100 | – | > 100 | – | > 100 | – | > 100 |
| CCn1cc(-c2ccnc3[nH]ccc23)c(-c2cccc(NC(=O)Nc3ccc(OCc4ccccc4)cc3)c2)n1 | 7.64 | > 25 | 22.1 | > 25 | 15.7 | > 25 | 8.15 | > 25 | 6.28 | > 25 | 11.2 | > 25 | 2.85 | > 25 | 12.1 | > 25 | > 19.7 | > 25 | 6.71 | > 25 |
| CN(C)c1ncc(-c2ccc(C(F)(F)F)cc2)c(NC2CCCCCC2)n1 | 12.4 | 29.4 | 18.2 | 38.8 | 25.8 | > 100 | 11.4 | 24.9 | 17.1 | 48.8 | 14.4 | 30.6 | 18.2 | 57.1 | 10.4 | 53.4 | 22.7 | 96.1 | 23.1 | > 100 |
| CC(=O)O[C@@H]1[C@@H](O)C2=C3[C@]4(C)[C@@H]1C(C)(C)C(=O)C[C@@H]4[C@]3(O)[C@H](OC(C)=O)[C@@]1(C[C@@H]1C)C2=O | – | 45.8 | – | 54.9 | – | 34.2 | – | 47.4 | – | 31.5 | – | 34.2 | – | 68.4 | – | 30.8 | – | 81.7 | – | 33.2 |
| O=C(O)c1cc2ccccc2oc1=O | – | > 100 | – | > 100 | – | > 100 | – | > 100 | – | > 100 | – | > 100 | – | > 100 | – | > 100 | – | > 100 | – | > 100 |
| Nc1nc2cc3ccc(C4CC(O)C(CO)O4)cc3cc2c(=O)[nH]1 (centres undefined) | 26.8 | > 100 | > 100 | > 100 | > 100 | > 100 | > 100 | > 100 | > 100 | > 100 | > 100 | > 100 | > 100 | > 100 | > 100 | > 100 | > 100 | > 100 | > 100 | > 100 |
| C[C@@H]1Cc2c([nH]c3ccccc23)[C@@H](c2c(F)cc(NC3CN(CCCF)C3)cc2F)N1CC(F)(F)CO | 1.64 | 8.82 | 14.1 | 27.9 | 11.7 | 33 | – | 4.27 | 3.5 | 12.7 | 2.35 | 5.71 | 9.91 | 28.7 | 1.94 | 3.83 | 4.78 | 19.5 | 3.66 | 15.7 |

Reference: PubChem BioAssay (NCI)
